According to US9724337B2, “AG-205 for the treatment of breast cancer” (University of Kentucky Research Foundation, priority 2009, dated 2017):

What was measured:
A549 cells [1] = test: Viability of A549 cells; format: cell-based, human; conditions: cells expressing heme binding-deficient mutant, increasing doses of AG-205, cell counting
Method: (§1) (A) Pgrmc1 (SEQ ID NO: 7) shares homology with AtMAPR2 (SEQ ID NO: 8) (underlined residues), which was the target for a screen for small molecule ligands. The putative heme-binding Tyr106 and Tyr112 are indicated with black boxes. (B) The molecular structure of AG-205 includes multiple aromatic components. (C) Spectroscopic scan of Pgrmc1 with vehicle control compared with vehicle plus 50 µM AG-205. The decrease in relative absorbance at 400 nm is consistent with an AG-205-induced change in the spectral properties of Pgrmc1-heme. The scan is representative of four separate scans using different Pgrmc1 protein preparations. The lower scan is a comparison of purified Pgrmc1 without and with the vehicle control (DMSO). Panels D (A549 cells) and E (MDA-MB-231 cells) are viability assays of cells maintained in 0.1% serum (solid line) or 10% serum (dashed line) and treated with increasing doses of AG-205. Percent viability was determined by cell counting, and “% viability” refers to the cell number relative to the untreated control.
(§2) Tissue culture. MDA-MB-468 cells were a kind gift from Dr. Rina Plattner of the University of Kentucky and were maintained in medium consisting of Dulbecco's Modified Eagle Medium containing 10% serum supreme (Fisher) and antibiotics. Cells were grown at 37° C. in 5% CO2 in air. A549 and HCC827 lung cancer cells, as well as SK-Br-3 breast cancer cells were obtained from the ATCC (American Type Culture Collection) and were grown under the same conditions. The H1650 lung cancer cell line was a kind gift from Dr. Heinz Kohler of the University of Kentucky. The Pgrmc1 ligand AG-205 was purchased from Timtec, Inc. The EGFR inhibitor AG1478 was from Biomol, Inc. and was used at a concentration range of 0.8-40 μM.
(§3) Proliferation, anchorage-independent growth and migration assays. For growth curves, cells were plated in 24 well dishes and grown in 10% serum-containing medium. At various times, the cells were harvested with trypsin and fixed with formaldehyde added to a final concentration of 3.7%. Following the harvest of the final time point, the cells from each time point were counted using a Bright-line hemocytometer (Hausser Scientific).
(§4) MTT viability assays were performed as described previously. Briefly, cells were plated in 96-well tissue culture dishes and grown in various media with different drug doses. The cells were then incubated with 0.5 mg/ml of 3-[4,5-dimethylthiazol-2-y]-2,5-diphenyltetrazolium bromide for 1.5 hours, at which time the media was removed, the precipitated crystals were dissolved in dimethyl sulfoxide, and the absorbance at 590 nm was measured using a Bio-Tek μQuant spectrophotometer.

MDA-MB-468 cells = test: Viability / proliferation of MDA-MB-468 cells; format: cell-based, human
Method: as §2, §3, §4

EGFR [2] = test: EGFR immunofluorescence localization in MDA-MB-468 cells; format: cell-based, human; conditions: AG-205-treated cells after 24 hours, 20 μM
Method: To test this model, EGFR was stained by immunofluorescence 24 hours after treatment with 20 μM AG-205 in MDA-MB-468 cells. In cells treated with the vehicle control, EGFR localized to the cell membrane. In contrast, EGFR localized to both the cell membrane and an intracellular ring which corresponds to the perinuclear region of the cell. Also, Pgrmc1 may control the uptake from the membrane to the perinuclear region.
Immunofluorescence for EGFR was performed as described previously (Crudden et al., (2005) Tumour Biol 26:142-6). Cells were grown on chamber slides, washed and fixed with 3.7% formaldehyde. The cells were then permeabilized with 0.1% Triton X-100 in phosphate-buffered saline, blocked with 10% serum and incubated, in turn, with anti-EGFR 1005 and a Texas red-labeled anti-rabbit secondary antibody.

focal adhesion kinase = test: Western blot of focal adhesion kinase in A549 cells; format: cell-based, human
Method: (§5) Immunological techniques. Cells were extracted in RIPA buffer (50 mM Tris, pH 8.0, 1% Nonidet P-40, 150 mM NaCl, 0.5% sodium deoxycholate, 0.1% sodium dodecyl sulfate, 1 mM phenylmethylsulfonyl fluoride, 10 μg/ml of aprotinin, leupeptin and pepstatin) for standard western blotting. The antibodies used in the study were anti-caveolin-1 (N-20, Santa Cruz Biologicals, # sc-894), anti-EGFR (1005, Santa Cruz, # sc-03), anti-ku70 (A-9, Santa Cruz # sc-5309), anti-Met (C-12, Santa Cruz # sc-10), anti-PARP (H-250, Santa Cruz # sc-7150), anti-phosphotyrosine (P-Tyr-100, Cell Signaling), anti-Pgrmc1 (Novus Biologics) and anti-tubulin (Neomarkers). Some western blots for Pgrmc1 were performed with a polyclonal antibody called anti-PGR-UK1 which was raised in rabbits to an internal 10 amino acid peptide.

Pgrmc1 [3] = target: T1, Pgrmc1 (Homo sapiens, UniProt O00264); test: Western blot of Pgrmc1 levels in MDA-MB-468 cells; format: cell-based
T1 sequence (O00264 whole entry): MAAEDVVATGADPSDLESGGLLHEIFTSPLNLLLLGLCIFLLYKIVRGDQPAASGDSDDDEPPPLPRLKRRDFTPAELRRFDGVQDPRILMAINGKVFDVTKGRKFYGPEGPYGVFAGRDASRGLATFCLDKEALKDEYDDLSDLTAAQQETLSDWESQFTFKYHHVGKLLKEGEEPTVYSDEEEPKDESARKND
Method: as §5

Pgrmc1 [4] = target: T1, Pgrmc1; test: Western blot of Pgrmc1 in A549 cells; format: cell-based; parameters: endogenous in cells; host or cells: A549 cells; conditions: A549 cells, 2, 10 or 50 μM for 24 hours
Method: (A) Graph of triplicate FACS analysis. […] (B) Protein expression was analyzed by western blot for Pgrmc1 (top) and ku70 (bottom). Cells were treated with 0 (lanes 1), 2 (lanes 2), 10 (lanes 3) or 50 (lanes 4) μM AG-205 for 24 hours. […] (C-D) The panels show western blots of phosphorylated ERK1/2 (upper panels) and total ERK1/2 (lower panels) The lanes in panel C are A549/con (lane 1), A549/RNAi (lane 2), A549/LacZ (lane 3) and A549/PGR-hbd cells (lane 4) following 48 hours serum starvation. The cells infected with adenovirus were similar to those described in FIG. 3, panels C and D. In panel D, A549 cells were treated with vehicle (lane 1) or 20 μM AG-205 (lane 2) for 24 hours in serum-free media. (E) A549/con (solid line) or A549/RNAi (dashed line) cells were treated with increasing doses of AG-205 for 72 hours and viability was measured by counting, and “% viability” refers to the cell number relative to the untreated control. (F) Cells expressing LacZ (solid line) or the Pgrmc1-hbd heme binding-deficient mutant (dashed line), were treated with increasing doses of AG-205. […] Percent viability was determined by cell counting, and “% viability” refers to the cell number relative to the untreated control. For each experiment, the results are representative of experiments performed at least in duplicate.
(§6) Immunological techniques. […]

[5] = test system: polyADP ribose polymerase (PARP) or caspase 3; test: Cleavage of PARP or caspase 3 in AG-205-treated cancer cells; format: cell-based, human; conditions: AG-205-treated cells losing viability
Method: as §5

HCC827 = test: AG-205 viability assay in HCC827 cells; format: cell-based
Method: as §2
as §3, with “At various times, the cells were harvested with trypsin and fixed with formaldehyde added to a final concentration of 3.7%.” left out
as §4, with “Briefly, cells were plated in 96-well tissue culture dishes and grown in various media with different drug doses.” left out

EGFR [6] = test: Western blot of EGFR levels in MDA-MB-468 cells; format: cell-based, human; conditions: 12-50 μM dose
Method: (§7) Panel A is a diagram indicating the positions of the siRNA molecules targeting Pgrmc1. Exons 1, 2 and 3 are indicated by “ex”. MDA-MB-468 cells were transfected with a control siRNA (siCON, lanes 1 and 3) or two separate siRNAs targeting Pgrmc1 (siPGR and siPGR2, lanes 2 and 4, respectively). In panels B-E and H-L, protein levels were analyzed by western blot for EGFR (B), phospho-tyrosine (C), Pgrmc1 (D) and ku70 (E), as a control for protein loading. Panels F—H show western blot analyses for (F) IGF-1R, (G) c-Kit and (H) tfR. In panels I and J, transcript levels were analyzed by reverse transcriptase-PCR for EGFR (I) and Pgrmc1 (J). The top band indicates the gene of interest, while actin primers were included in the same reaction as a control for cDNA loading. […] In panels K-L, MDA-MB-468 cells were treated with increasing doses of the Pgrmc1 ligand AG-205. Protein expression was analyzed by western blot for EGFR (K) and ku70 (L). Cells were treated with 0 (lanes 1), 2 (lanes 2), 10 (lanes 3) or 50 (lanes 4) μM AG-205 for 24 hours in serum-free medium. In panels M-N, A549 cells were treated with the same doses and analyzed for EGFR (M) and ku70 (N). […] Expression analyses were repeated at least in duplicate throughout.
as §6

A549 cells [7] = test: FACS cell cycle analysis; format: cell-based, human; conditions: triplicate FACS analysis, AG-205-treated cells
Method: (A) Graph of triplicate FACS analysis. […] (B) Protein expression was analyzed by western blot for Pgrmc1 (top) and ku70 (bottom). Cells were treated with 0 (lanes 1), 2 (lanes 2), 10 (lanes 3) or 50 (lanes 4) μM AG-205 for 24 hours. […] (C-D) The panels show western blots of phosphorylated ERK1/2 (upper panels) and total ERK1/2 (lower panels) The lanes in panel C are A549/con (lane 1), A549/RNAi (lane 2), A549/LacZ (lane 3) and A549/PGR-hbd cells (lane 4) following 48 hours serum starvation. The cells infected with adenovirus were similar to those described in FIG. 3, panels C and D. In panel D, A549 cells were treated with vehicle (lane 1) or 20 μM AG-205 (lane 2) for 24 hours in serum-free media. (E) A549/con (solid line) or A549/RNAi (dashed line) cells were treated with increasing doses of AG-205 for 72 hours and viability was measured by counting, and “% viability” refers to the cell number relative to the untreated control. […] Percent viability was determined by cell counting, and “% viability” refers to the cell number relative to the untreated control. […]
FACS was performed essentially as described previously (Mallory (2005)). […] FACS analysis was performed at the University of Kentucky flow cytometry facility, and the data were analyzed using Modfit software (Verity, Inc.).

EGFR [8] = test: Western blot of EGFR levels in A549 cells; format: cell-based, human
Method: as §7, §6

Pgrmc1-heme complex = Pgrmc1-heme complex (Homo sapiens, UniProt O00264); test: Spectroscopic scan of purified Pgrmc1 with AG-205; format: binding; conditions: AG-205 added to purified Pgrmc1, spectroscopic scan
Sequence of Pgrmc1-heme complex (O00264 whole entry, one chain of several): as the sequence (O00264 whole entry) above
Method: as §1

SMILES: Cc1ccc2c(c1)[C@H]1CN(C)CC[C@H]1N2C(=O)CSc1nnnn1-c1ccc(Cl)cc1 [AG-205]
- viability of Pgrmc1-hbd-expressing cells (A549 cells [1]): partially reversed the loss of viability
- IC50 (MDA-MB-468 cells; MDA-MB-468, breast, serum-starved, EGFR wild-type, read-out: IC50 values for AG-205, Serum-starved): 12 µM
- cell viability (MDA-MB-468 cells; MDA-MB-468 cells, 20 μM dose, 72-96 hours after treatment): marked loss of viability
- viability under normal culture conditions (MDA-MB-468 cells; MDA-MB-468 cells, ligand abundant (10% serum)): slight increase in viability
- cell growth inhibition (MDA-MB-468 cells; MDA-MB-468 cells, wild-type EGFR): efficiently inhibited cell growth
- growth inhibitory activity depending on culture conditions (MDA-MB-468 cells; low serum versus 10% serum, P=0.0006 for MDA-MB-468 at 20 μM): killing cells grown in low serum conditions but not 10% serum
- EGFR localization (EGFR [2]): EGFR localized to the perinuclear region of the cell
- stability of focal adhesion kinase (focal adhesion kinase): little effect
- increase in Pgrmc1 levels (Pgrmc1 [3]; 12 μM dose): 4.8 fold
- Pgrmc1 levels (Pgrmc1 [3]; doses of 25 and 50 μM): nearly undetectable levels
- Pgrmc1 expression (Pgrmc1 [4]): increases Pgrmc1 expression
- cleavage of PARP or caspase 3 [5]: did not detect an increase
- IC50 (HCC827; HCC827, lung, serum-starved, EGFR ΔE746-A750): > 100 µM
- sensitivity to growth inhibition (HCC827; HCC827 cells, ΔE746-A750 EGFR): relatively insensitive
- decrease in EGFR levels (EGFR [6]): 14 fold
- cell cycle distribution (A549 cells [7]): significant G1 arrest and accumulation of sub-G1 cells
- dose with optimal EGFR de-stabilizing activity (EGFR [8]): 20 to 50 µM
- EGFR stability (EGFR [8]; increasing doses): de-stabilized EGFR in a dose-dependent manner
- change in absorbance of purified Pgrmc1 (Pgrmc1-heme complex): shift in absorbance at approximately 400 nm
